Measurements published in publication PMC5562840, “TRPM6 and TRPM7 differentially contribute to the relief of heteromeric TRPM6/7 channels from inhibition by cytosolic Mg^2+ and Mg·ATP” (Scientific Reports, 2017).

Tests used:
mTRPM7 = target: T1, mTRPM7 (Mus musculus, UniProt Q923J1); assay: whole-cell patch clamp, intracellular dose response ([…] free Mg2+); type: cell-based
T1 construct: gene Trpm7; full-length mTRPM7 in pIRES2-EGFP, HEK 293 cells

mTRPM6 = target: T2, mTRPM6 (Mus musculus, UniProt Q8CIR4); assay: whole-cell patch clamp; […] inhibits currents; type: cell-based
T2 construct: gene Trpm6; full-length mTRPM6 (2028 aa) in pIRES2-EGFP, HEK 293 cells
T2 sequence (Q8CIR4 whole entry): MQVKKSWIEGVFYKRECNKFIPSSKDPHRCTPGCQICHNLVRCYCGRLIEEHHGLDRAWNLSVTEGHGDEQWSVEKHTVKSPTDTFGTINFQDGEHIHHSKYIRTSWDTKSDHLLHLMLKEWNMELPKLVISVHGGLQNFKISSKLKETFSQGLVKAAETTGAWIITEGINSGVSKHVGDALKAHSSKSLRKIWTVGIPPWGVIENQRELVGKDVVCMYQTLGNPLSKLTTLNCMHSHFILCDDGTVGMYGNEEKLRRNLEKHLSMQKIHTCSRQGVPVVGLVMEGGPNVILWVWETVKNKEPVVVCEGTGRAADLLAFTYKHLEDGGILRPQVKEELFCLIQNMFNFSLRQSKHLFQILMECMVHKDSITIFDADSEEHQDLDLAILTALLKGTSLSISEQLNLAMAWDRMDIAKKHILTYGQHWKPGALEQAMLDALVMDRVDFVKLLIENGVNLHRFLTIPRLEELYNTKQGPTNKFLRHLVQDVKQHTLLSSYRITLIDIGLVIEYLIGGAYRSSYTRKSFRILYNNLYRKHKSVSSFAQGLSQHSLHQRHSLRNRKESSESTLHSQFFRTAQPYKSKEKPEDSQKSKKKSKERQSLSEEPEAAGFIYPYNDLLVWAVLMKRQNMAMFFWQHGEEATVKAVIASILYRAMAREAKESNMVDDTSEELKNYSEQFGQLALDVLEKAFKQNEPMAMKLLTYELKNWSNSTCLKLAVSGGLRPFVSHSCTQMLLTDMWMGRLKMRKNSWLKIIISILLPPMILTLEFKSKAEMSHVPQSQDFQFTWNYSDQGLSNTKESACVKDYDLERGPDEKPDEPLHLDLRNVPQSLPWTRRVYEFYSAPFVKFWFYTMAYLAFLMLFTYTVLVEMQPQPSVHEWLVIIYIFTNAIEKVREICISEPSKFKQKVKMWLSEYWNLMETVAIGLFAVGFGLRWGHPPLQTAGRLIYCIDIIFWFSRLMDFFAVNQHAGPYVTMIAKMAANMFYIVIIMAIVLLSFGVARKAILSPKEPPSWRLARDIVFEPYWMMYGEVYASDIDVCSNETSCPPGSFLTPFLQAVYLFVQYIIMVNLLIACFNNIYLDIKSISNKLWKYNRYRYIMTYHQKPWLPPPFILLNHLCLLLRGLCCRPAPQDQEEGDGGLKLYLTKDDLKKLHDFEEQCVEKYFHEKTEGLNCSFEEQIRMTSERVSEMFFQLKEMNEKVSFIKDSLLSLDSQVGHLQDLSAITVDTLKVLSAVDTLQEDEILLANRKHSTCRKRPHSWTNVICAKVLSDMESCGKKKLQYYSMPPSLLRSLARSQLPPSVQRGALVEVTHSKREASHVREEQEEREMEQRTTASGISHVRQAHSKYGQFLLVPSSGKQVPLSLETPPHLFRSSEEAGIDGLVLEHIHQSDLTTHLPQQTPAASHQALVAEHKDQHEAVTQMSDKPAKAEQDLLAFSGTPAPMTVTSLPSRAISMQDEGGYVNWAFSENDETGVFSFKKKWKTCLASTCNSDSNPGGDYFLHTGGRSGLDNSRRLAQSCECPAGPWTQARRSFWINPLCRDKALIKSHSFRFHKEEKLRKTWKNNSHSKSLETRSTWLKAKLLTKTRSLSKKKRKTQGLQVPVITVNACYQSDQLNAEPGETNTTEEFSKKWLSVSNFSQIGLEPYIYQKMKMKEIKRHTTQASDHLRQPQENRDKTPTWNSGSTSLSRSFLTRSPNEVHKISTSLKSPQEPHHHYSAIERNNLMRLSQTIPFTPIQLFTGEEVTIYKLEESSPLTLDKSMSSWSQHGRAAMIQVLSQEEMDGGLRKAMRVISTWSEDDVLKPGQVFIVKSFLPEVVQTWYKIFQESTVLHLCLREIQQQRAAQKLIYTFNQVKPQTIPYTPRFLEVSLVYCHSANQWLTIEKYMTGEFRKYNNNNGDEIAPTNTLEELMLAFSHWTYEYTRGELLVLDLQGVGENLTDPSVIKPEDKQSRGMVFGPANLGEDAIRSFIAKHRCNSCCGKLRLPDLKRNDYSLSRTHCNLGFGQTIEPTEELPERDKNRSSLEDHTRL

[1] = target: mouse TRPM7 (mTRPM7) fused to a myc tag (mTRPM7-myc) (mouse) (UniProt Q923J1)
mouse TRPM7 (mTRPM7) fused to a myc tag (mTRPM7-myc) (mouse), sequence (Q923J1 whole entry, the tested form may be a part): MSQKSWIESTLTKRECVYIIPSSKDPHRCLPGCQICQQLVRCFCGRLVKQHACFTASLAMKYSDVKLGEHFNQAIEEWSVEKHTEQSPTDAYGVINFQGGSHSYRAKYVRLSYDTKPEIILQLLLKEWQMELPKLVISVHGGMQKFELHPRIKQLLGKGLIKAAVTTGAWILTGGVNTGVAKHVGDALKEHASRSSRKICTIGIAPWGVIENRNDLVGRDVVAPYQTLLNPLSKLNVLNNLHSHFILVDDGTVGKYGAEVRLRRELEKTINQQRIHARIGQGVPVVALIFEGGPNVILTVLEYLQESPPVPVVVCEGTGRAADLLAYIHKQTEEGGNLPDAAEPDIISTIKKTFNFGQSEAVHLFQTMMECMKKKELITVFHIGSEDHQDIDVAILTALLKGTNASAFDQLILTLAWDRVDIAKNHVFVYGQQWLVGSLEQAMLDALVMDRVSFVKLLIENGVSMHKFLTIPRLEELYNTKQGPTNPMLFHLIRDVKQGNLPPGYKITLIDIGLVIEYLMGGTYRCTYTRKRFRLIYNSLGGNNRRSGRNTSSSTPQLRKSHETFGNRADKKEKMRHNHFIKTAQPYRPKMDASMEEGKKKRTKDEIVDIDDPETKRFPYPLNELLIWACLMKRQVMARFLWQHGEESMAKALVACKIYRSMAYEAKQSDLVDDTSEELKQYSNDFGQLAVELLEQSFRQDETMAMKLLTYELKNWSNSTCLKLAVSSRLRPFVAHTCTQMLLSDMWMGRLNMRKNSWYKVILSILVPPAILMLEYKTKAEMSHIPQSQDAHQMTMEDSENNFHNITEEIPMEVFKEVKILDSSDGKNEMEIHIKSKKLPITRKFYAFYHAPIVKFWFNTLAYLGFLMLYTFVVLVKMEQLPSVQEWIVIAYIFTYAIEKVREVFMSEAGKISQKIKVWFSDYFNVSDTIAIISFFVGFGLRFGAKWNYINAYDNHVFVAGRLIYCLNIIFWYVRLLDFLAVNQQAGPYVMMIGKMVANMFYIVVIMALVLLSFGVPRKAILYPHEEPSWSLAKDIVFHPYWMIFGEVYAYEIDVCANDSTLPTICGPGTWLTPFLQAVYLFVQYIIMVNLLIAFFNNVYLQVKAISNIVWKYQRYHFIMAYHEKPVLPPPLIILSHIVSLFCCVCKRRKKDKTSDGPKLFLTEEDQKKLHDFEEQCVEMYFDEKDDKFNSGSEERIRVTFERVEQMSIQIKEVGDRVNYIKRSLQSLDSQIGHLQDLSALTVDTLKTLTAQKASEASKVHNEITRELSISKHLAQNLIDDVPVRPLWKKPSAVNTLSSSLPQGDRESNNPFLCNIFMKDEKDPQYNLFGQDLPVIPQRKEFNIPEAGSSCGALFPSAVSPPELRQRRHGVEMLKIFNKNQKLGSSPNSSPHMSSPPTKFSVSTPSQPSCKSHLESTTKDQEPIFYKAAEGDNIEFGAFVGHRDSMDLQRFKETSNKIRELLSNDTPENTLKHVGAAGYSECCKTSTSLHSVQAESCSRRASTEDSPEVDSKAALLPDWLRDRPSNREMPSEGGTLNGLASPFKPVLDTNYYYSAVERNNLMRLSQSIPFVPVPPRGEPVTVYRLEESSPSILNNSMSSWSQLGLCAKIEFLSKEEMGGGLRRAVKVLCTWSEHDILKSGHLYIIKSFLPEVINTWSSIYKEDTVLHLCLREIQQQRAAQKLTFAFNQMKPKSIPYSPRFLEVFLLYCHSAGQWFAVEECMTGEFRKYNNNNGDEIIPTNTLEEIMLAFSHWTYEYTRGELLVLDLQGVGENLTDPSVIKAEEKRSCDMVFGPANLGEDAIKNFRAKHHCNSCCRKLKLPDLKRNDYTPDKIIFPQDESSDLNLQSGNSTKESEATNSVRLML

T1 sequence (Q923J1 whole entry): as the sequence (Q923J1 whole entry, the tested form may be a part) above

With Nc1ncnc2c1ncn2[C@@H]1O[C@H](COP(=O)(O)OP(=O)(O)OP(=O)(O)O)[C@@H](O)[C@H]1O [Mg·ATP] the IC50 (mTRPM7) was 2930 µM.

c1ccc2c(c1)CCC[C@H]2Nc1nc2ccccc2[nH]1 [NS8593] was tested, and the “whole-cell patch clamp; 10 μM inhibits currents” value (mTRPM6) was “We noted that NS8593 caused a rapid irreversible inhibition of mTRPM6”.

“mouse TRPM6 with a C-terminal yellow fluorescent protein tag (mTRPM6-YFP), Q8CIR4 1-2028” was tested, and the whole-cell currents at break-in (pre-activated outward currents) in HEK 293 cells co-transfected with mTRPM6 and mTRPM7, against cells with mTRPM7 alone [1] was 10 fold.
